Results from ChEMBL document CHEMBL1201862, “PubChem BioAssay data set” (2004).
Activity calls are given as the source filed them.

Columns and labels:
Prothrombin = Prothrombin (Homo sapiens, UniProt P00734); experiment: Thrombin 1536 HTS Dose Response Confirmation. [Related pubchem assays: 1046 (Thrombin 1536 HTS; hits were confirmed in this assay)]; type: functional
[1] = inhibition of ADAM10 peptide cleavage – biochemical, FRET peptide substrate, recombinant human ADAM10, selectivity assay for ADAM17 exosite inhibitor project, dose response (AID 743259);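 further: ADAM10 enzyme cleaving a FRET peptide substrate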
[2] = Luminescence-based cell-based high throughput dose response assay to identify activators of the DAF-12 from the parasite S. stercoralis (ssDAF-12).; type: functional
[3] = target: T1, Oxysterols receptor LXR-beta (Homo sapiens, UniProt P55055); experiment: LXR agonists, Gal4 luciferase reporter, dose response, counter-screen for ssDAF-12 agonist project, cell-based, luminescence, HEK293, S. stercoralis campaign (AID 720737); type: functional; conditions: read-out: IC50 (the source's name)
T1 sequence (P55055 whole entry): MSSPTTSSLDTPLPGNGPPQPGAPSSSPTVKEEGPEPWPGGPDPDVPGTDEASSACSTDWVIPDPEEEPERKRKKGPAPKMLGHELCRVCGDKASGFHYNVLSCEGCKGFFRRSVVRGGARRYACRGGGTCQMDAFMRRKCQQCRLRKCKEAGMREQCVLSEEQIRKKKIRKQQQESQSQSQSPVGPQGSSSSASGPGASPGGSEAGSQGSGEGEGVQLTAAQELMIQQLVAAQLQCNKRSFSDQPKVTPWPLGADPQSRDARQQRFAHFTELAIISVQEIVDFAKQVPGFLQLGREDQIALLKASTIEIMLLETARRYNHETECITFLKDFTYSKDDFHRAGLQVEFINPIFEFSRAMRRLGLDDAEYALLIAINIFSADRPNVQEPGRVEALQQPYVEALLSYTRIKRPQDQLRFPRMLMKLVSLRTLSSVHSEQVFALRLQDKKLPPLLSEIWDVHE

[4] = target: T2, Polyadenylate-binding protein 1 (Homo sapiens, UniProt P11940); experiment: MLLE domain peptide-binding blockers, IC50 – biochemical, fluorescence polarization, FITC-PAM2 peptide, dose response (AID 602259); type: functional; conditions: read-out: IC50_Mean
Genome polyprotein = Genome polyprotein (dengue virus type 2, UniProt P29990); experiment: flavivirus cap methylation enzyme inhibition – biochemical, confirmation dose response, primary screen (AID 588689); type: functional
[5] = target: T2, Polyadenylate-binding protein 1; experiment: MLLE binding blockers, Cy5 peptide tracer – biochemical, fluorescence polarization, Cy5-PAM2 peptide, secondary, miRNA deadenylation inhibitor project, dose response (AID 602260); type: functional; conditions: read-out: IC50_Mean
Large T antigen = Large T antigen (Simian virus 40, UniProt P03070); type: functional, Betapolyomavirus macacae;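 further: Confirmatory-stage PubChem screen for compounds that inhibit SV40 T antigen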
[6] = target: T3, Bifunctional protein GlmU (Mycobacterium tuberculosis, UniProt P9WMN3); experiment: Inhibitors of Mycobacterial Glucosamine-1-phosphate acetyl transferase (GlmU). Secondary screen.; set-up: species or system Mycobacterium tuberculosis H37Rv
T3 sequence (P9WMN3 whole entry): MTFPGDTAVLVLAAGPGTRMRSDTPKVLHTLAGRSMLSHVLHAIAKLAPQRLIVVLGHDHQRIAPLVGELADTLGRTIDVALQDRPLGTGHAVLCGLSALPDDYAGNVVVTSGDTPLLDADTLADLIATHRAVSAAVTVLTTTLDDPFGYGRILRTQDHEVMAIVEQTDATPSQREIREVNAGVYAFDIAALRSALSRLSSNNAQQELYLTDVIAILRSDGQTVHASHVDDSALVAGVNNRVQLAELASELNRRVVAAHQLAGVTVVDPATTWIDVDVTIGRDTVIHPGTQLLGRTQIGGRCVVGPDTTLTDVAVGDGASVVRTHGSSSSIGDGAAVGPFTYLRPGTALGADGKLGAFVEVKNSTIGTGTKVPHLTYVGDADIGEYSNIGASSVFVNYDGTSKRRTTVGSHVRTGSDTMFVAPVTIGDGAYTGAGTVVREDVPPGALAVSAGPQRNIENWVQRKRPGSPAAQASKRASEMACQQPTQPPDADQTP

BJ [7] = experiment: cells; type: functional, cell-based; conditions: Homo sapiens
BJ [8] = experiment: BJ-TERT-LT-ST fibroblast viability loss – cell-based, RAS-independent, luminescence, dose response (AID 1935); type: functional; conditions: Homo sapiens;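 further: BJ fibroblasts immortalized with TERT plus LT and ST oncogenes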
[9] = DRD fibroblast viability loss – cell-based, non-viral oncogenic, luminescence, dose response (AID 1934); type: functional; conditions: Homo sapiens
BJ [10] = experiment: BJ-TERT fibroblast viability loss – cell-based, RAS-independent, luminescence, dose response (AID 1933); type: functional; conditions: Homo sapiens
[11] = general cell-killing toxicity readout – plate reader, dry powder samples, cytotoxicity control for PAX8 inhibitor project, dose response (AID 743021); type: functional, cell-based
Paired box protein Pax-8 = Paired box protein Pax-8 (Homo sapiens, UniProt Q06710); experiment: PAX8 transcriptional activity inhibition in RMG-I – RMG-I cells, luciferase, cherry-pick, dose response (AID 687027); type: functional, cell-based;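 further: luciferase reporter driven by Pax8 target thyroperoxidase promoter measured by SteadyGlo luminescence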
[12] = target: Disintegrin and metalloproteinase domain-containing protein 17 (Homo sapiens, UniProt P78536); experiment: exosite inhibitors of ADAM17, dose response, biochemical (AID 743260)
Disintegrin and metalloproteinase domain-containing protein 17, sequence (P78536 whole entry, the tested form may be a part): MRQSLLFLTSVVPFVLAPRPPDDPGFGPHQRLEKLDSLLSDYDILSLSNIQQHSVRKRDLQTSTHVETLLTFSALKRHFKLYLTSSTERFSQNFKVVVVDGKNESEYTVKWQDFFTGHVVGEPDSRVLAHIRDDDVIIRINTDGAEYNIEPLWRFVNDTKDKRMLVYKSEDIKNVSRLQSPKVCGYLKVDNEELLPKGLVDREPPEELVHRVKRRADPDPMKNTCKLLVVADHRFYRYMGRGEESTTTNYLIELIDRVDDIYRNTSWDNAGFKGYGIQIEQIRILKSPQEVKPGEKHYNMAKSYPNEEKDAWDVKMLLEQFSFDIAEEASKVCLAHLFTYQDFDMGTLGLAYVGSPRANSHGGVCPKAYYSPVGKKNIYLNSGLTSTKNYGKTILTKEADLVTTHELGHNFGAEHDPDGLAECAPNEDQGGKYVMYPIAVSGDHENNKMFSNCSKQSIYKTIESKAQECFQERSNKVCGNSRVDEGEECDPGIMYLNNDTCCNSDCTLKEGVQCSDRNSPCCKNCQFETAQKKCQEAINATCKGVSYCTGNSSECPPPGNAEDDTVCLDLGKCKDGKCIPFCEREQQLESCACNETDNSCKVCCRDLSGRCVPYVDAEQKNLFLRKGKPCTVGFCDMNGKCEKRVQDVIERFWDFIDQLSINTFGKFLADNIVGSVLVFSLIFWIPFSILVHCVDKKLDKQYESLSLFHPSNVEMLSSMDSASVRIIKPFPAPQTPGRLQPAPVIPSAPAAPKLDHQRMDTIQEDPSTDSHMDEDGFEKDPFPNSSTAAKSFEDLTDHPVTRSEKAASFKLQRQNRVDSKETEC

T2 sequence (P11940 whole entry, the tested form may be a part): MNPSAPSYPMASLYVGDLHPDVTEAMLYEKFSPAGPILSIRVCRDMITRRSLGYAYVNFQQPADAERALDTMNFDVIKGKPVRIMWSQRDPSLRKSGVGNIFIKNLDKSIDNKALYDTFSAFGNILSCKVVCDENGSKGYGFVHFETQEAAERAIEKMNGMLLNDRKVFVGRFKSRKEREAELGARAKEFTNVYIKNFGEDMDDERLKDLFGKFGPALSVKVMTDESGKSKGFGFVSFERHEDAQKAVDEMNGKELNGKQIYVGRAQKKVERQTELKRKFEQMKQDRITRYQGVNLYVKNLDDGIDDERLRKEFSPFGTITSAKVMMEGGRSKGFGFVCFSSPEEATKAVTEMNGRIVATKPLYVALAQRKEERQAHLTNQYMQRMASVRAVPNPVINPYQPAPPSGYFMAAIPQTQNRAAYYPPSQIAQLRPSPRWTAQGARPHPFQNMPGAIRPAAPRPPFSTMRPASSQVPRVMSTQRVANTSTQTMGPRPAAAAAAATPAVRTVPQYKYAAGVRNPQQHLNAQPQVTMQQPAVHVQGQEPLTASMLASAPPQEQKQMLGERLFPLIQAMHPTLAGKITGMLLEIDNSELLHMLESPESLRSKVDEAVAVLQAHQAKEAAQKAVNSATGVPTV
Paired box protein Pax-8, sequence (Q06710 whole entry, the tested form may be a part): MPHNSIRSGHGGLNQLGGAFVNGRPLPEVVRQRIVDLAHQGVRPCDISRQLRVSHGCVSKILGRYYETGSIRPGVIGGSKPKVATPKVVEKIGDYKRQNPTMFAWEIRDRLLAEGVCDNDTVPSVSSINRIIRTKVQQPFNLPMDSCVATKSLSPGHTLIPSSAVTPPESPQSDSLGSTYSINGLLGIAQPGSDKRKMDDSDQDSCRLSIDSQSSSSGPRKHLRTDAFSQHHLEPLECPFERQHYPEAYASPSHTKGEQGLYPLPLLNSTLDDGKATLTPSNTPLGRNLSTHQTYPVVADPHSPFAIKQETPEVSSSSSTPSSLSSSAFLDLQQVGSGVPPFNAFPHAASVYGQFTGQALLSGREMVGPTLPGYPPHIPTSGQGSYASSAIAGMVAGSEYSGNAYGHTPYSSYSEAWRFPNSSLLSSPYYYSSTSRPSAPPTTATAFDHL
Genome polyprotein, sequence (P29990 2492-3391 limits assumed): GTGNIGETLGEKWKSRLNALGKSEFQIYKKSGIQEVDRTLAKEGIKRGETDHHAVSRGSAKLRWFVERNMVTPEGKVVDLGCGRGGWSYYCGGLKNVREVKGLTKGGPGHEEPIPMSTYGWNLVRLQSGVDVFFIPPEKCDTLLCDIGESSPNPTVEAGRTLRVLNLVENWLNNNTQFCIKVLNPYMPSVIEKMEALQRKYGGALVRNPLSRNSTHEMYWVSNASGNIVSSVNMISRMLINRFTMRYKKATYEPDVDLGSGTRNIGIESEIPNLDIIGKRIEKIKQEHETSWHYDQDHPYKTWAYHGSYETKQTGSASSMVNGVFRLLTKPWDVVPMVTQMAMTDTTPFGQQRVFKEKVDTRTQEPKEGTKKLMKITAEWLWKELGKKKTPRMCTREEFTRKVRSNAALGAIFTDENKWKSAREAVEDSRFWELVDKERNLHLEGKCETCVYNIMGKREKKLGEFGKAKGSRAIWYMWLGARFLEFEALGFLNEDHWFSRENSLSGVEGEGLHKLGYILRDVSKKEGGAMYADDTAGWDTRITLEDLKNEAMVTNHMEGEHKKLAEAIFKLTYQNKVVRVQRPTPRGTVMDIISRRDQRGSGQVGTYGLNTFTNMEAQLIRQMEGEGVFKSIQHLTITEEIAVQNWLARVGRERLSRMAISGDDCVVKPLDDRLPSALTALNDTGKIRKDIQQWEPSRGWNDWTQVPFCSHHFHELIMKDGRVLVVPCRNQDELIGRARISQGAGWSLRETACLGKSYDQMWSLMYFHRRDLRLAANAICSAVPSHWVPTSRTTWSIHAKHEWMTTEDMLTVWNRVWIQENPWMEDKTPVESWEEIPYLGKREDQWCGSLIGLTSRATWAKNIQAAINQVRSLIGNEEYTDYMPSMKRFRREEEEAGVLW
Large T antigen, sequence (P03070 whole entry): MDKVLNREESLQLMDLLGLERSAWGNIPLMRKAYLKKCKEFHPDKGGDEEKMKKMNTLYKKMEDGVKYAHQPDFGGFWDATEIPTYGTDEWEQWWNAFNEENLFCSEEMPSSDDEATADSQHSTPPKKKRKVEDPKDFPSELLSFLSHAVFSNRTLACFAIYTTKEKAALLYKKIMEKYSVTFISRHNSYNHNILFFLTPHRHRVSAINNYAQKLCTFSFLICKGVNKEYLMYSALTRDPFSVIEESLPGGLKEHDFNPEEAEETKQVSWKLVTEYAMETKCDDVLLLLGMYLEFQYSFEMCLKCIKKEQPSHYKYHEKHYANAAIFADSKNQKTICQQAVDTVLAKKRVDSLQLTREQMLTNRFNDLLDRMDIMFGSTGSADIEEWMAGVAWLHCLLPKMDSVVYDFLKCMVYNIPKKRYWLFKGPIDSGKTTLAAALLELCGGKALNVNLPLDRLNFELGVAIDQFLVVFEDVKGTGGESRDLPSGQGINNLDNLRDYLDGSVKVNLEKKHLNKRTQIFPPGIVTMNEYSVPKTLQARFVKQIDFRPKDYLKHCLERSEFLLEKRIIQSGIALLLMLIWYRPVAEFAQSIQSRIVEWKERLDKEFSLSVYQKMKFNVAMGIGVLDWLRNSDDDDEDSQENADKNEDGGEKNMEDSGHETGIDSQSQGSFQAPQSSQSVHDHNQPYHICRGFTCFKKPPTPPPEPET

Cc1ccc(S(=O)(=O)/N=C/c2ccco2)cc1
IC50 (Prothrombin): > 50 µM (not active)

Sc1n[nH]c(-c2sccc2OCc2ccc(Cl)cc2Cl)n1
IC50 [1]: > 69.5 µM (inactive)

Cc1onc(-c2ccccc2)c1C(=O)OCC(=O)c1ccc(F)cc1
IC50 [2]: > 67.5 µM (inactive) | EC50 [3]: > 67.5 µM (inactive)

O=C(O)c1ccc(Nc2cc(Cl)c3nonc3c2[N+](=O)[O-])cc1
IC50 [4]: > 66 µM (inactive) | IC50 (Genome polyprotein): 12 µM (active) | IC50 [5]: > 66 µM (inactive) | IC50 (Large T antigen): 76.6 µM (active) | IC50 [6]: 92 µM (active)

O=C(NC1CCCCC1)C(c1cccnc1)N(C(=O)CCl)c1ccccc1Cl (centres undefined)
EC50 (BJ [7]): > 150 µM (not active) | EC50 (BJ [8]): > 150 µM (not active) | EC50 [9]: 37.3 µM (active) | EC50 (BJ [10]): 3.94 µM (inconclusive) | AC50 [11]: 11.2 µM (active) | AC50 (Paired box protein Pax-8): 6.05 µM (active)

CN(/N=C/c1cccnc1)c1cnc2ccccc2n1
IC50 [2]: > 67.5 µM (inactive) | EC50 [3]: > 67.5 µM (inactive)

CCCn1c(CCNc2nc(-c3cccc(Br)c3)cs2)nc2ccccc21
IC50 [1]: > 69.6 µM (inactive) | IC50 [12]: > 69.6 µM (inactive)
